One experiment has as its target D(1A) dopamine receptor (Homo sapiens, UniProt P21728). In words: Antagonist activity at dopamine D1 receptor. The class given is functional.
The target in a further experiment is D(2) dopamine receptor (Homo sapiens, UniProt P14416). In words: Antagonist activity at dopamine D2 receptor. It counts as functional.
Sequence of D(2) dopamine receptor (P14416 whole entry): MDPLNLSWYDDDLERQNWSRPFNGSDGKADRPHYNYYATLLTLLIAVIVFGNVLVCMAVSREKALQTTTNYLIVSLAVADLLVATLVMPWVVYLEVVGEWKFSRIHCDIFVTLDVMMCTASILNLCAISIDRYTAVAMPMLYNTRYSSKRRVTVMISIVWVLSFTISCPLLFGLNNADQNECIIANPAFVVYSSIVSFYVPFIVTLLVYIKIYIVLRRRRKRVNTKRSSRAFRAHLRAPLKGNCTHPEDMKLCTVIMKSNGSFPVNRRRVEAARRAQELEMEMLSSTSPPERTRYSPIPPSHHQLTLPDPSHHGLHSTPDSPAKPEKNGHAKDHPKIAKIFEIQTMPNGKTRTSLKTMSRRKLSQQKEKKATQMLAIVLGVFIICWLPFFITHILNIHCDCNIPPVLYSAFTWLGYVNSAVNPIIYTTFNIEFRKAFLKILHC

Sequence of D(1A) dopamine receptor (P21728 whole entry): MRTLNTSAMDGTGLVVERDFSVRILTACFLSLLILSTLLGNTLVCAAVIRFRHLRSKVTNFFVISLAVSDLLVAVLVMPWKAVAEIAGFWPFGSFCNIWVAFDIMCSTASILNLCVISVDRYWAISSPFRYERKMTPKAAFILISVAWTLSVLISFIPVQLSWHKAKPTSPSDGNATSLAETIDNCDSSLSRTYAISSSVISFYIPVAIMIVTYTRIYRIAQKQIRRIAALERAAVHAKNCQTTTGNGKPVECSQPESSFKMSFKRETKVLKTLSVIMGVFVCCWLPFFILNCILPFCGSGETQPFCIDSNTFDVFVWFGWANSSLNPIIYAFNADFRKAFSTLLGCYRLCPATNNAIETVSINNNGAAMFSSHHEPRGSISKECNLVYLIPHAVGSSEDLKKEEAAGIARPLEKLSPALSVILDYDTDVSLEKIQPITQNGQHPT

Turning to `COc1cc2c(cc1O)CN1CCc3cc(OC)c(O)cc3[C@H]1C2`, the EC50 on D(1A) dopamine receptor is above 100 µM; at D(2) dopamine receptor, 14 µM.
Taken in the same sequence, the figures for `COc1cc2c(cc1O)CN1CCc3cc(OC)c(O)cc3[C@@H]1C2` were 0.0056 µM and 56 µM.

Broadly, the EC50 is the concentration giving half of the maximal effect.

These data come from ChEMBL document CHEMBL1949652, “First enantioselective syntheses of the dopamine D1 and D2 receptor modulators, (+)- and (-)-govadine” (Bioorg Med Chem Lett, 2012).
